Reference: ChEMBL document CHEMBL3576772, “Fibroblast Growth Factor Receptor 3 (FGF-R3): A Promising Therapeutic Target for the Treatment of Bladder Cancer” (2015)

Assays:
[1] = Inhibition of serum-induced proliferation of human TCC97-7 cells carrying FGFR3 Ser249Cys mutation at 1 uM after 3 days; format: functional; details: TCC97-7, 72 h
[2] = Inhibition of serum-induced proliferation of human TCC97-7 cells carrying FGFR3 Ser249Cys mutation at 10 uM after 3 days; format: functional; details: TCC97-7, 72 h
[3] = test system: Fibroblast growth factor receptor 3 (Homo sapiens), P22607 [S249C]; assay: Antagonist activity against FGFR3 Ser249Cys mutant in human TCC97-7 cells cultured in serum-supplemented medium assessed as reduction in ATP content at 10 um after 3 days by cell titer-Glo luminescent cell viability assay; format: cell-based
Fibroblast growth factor receptor 3 (Homo sapiens), P22607 [S249C], sequence (P22607 whole entry S249C): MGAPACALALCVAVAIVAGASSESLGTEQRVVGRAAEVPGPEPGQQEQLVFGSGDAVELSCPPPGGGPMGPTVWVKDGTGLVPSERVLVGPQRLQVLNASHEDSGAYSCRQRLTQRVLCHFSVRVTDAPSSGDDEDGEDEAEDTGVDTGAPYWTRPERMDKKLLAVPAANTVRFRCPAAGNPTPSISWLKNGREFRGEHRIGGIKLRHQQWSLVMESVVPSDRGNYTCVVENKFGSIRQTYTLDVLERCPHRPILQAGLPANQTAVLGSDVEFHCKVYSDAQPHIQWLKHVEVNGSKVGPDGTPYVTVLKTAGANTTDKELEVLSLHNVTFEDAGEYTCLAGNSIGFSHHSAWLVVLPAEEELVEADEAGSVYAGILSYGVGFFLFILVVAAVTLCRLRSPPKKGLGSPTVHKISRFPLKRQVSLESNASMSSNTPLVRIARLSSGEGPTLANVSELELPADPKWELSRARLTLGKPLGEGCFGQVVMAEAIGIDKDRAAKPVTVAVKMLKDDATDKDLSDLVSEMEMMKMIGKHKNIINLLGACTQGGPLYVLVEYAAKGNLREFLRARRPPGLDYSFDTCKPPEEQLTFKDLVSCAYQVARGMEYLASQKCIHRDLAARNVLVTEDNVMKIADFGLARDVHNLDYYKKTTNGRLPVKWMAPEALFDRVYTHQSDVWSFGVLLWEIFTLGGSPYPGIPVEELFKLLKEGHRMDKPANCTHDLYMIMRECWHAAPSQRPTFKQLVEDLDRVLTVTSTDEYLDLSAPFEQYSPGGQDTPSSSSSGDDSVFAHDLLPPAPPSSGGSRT

[4] = test system: Fibroblast growth factor receptor 3 (Homo sapiens), P22607 [S249C]; assay: Antagonist activity against FGFR3 Ser249Cys mutant in human TCC97-7 cells cultured in serum-supplemented medium assessed as reduction in ATP content at 1 um after 3 days by cell titer-Glo luminescent cell viability assay; format: cell-based

Row | SMILES | inhibition at 1 µM [1] [%] | inhibition at 10 µM [2] [%] | inhibition [3] [%] | inhibition [4] [%]
1 | O=c1[nH]c2ccc(-c3cc(C(F)(F)F)c4c(-c5ccccc5)n[nH]c4n3)cc2[nH]1 | -3 | 29 | 19 | –
2 | Cn1nc(-c2ccccc2)c2c(C(F)(F)F)cc(-c3cccc(C(N)=O)c3)nc21 | 8 | 91.6 | 41.1 | 10.9
3 | Cn1nc(-c2ccccc2)c2c(C(F)(F)F)cc(-c3ccc(C(=O)O)cc3)nc21 | 8 | 33 | 40 | 17
4 | O=C(c1cccc(-c2cc(C(F)F)c3c(-c4ccccc4)n[nH]c3n2)c1)N1CCCC1 | 16.2 | 83.9 | 90.5 | 26.9
